Like-named read-outs stand apart in the source and are kept apart here.
How the values were obtained:
KRAS G12D-GTP & SOS1 = KRAS G12D-GTP & SOS1 (Homo sapiens (Human), UniProt P01116, G12D); test: KRAS G12D/SOS1 binding experiment (HTRF); conditions: competitive binding
KRAS G12D-GTP & cRAF = KRAS G12D-GTP & cRAF (Homo sapiens (Human), UniProt P01116, G12D); test: KRAS G12D/cRAF binding experiment (HTRF); conditions: competitive binding
intracellular pERK = test: Inhibitory effect on intracellular pERK, In-Cell Western, AGS cells; type: cell-based; conditions: Homo sapiens, read-out: Inhibitory effect on intracellular pERK, IC50
[1] = Stability in human liver microsomes; type: in vitro ADME; conditions: human, pH 7.4; for CLHep / ER: 1 μM; for half-life at 1 μM / microsomal CLint at 1 μM: microsomes
Method: (§1) Objective: To evaluate the stability of the compounds of the present invention in human and mouse liver microsomes by LC-MS/MS.
(§2) The ratio of the sample peak area to the internal standard peak area was obtained by LC/MS/MS, and the content of the compounds at 0 min was regarded as 100%, and the relative content of the compounds at each time point was calculated. The half-life of the compound was calculated by plotting the “relative content of the compound” against the “incubation time”, and the intrinsic clearance was calculated, in which the half-life and intrinsic clearance of the compound in human and mouse liver microsomes were determined in Table 3 and Table 4, respectively.

[2] = Stability in mouse liver microsomes; type: in vitro ADME; conditions: mouse, pH 7.4; for CLHep / CLin vivo / ER: 1 μM; for half-life at 1 μM / microsomal CLint at 1 μM: microsomes
Method: as §1, §2

[3] = AGS cells, 3 h incubation, In-Cell Western

Chain of KRAS G12D-GTP & SOS1 (P01116-2 other isoform, or with tags, fused parts or gaps G12D): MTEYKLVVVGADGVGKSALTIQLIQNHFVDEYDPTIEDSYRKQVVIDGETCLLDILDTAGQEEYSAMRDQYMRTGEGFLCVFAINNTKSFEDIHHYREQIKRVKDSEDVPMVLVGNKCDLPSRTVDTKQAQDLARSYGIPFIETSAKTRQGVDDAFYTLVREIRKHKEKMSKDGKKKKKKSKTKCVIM
Chain of KRAS G12D-GTP & cRAF (P01116-2 other isoform, or with tags, fused parts or gaps G12D): as above

Row | SMILES | IC50 (KRAS G12D-GTP & SOS1) [nM] | IC50 (KRAS G12D-GTP & cRAF) [nM] | IC50 (intracellular pERK; [3]) [nM] | further results
1 | C#Cc1c(F)ccc2cc(O)cc(-c3nc(C#CCC(C)C)c4c(N5CC6CCC(C5)N6)nc(OC[C@@]56CCCN5C[C@H](F)C6)nc4c3F)c12 [Compound 29] | 15.9 | 14.7 | 1 | –
2 | C#Cc1c(F)ccc2cc(O)cc(-c3nc(C#C)c4c(N5CC6CCC(C5)N6)nc(OC[C@@H]5CCCN5C)nc4c3F)c12 [Compound 51] | 20.8 | 11.1 | 1.2 | –
3 | C#Cc1c(F)ccc2cc(O)cc(-c3nc(C#C)c4c(N5C[C@@H]6C[C@H]5CN6)nc(OC[C@@]56CCCN5C[C@H](F)C6)nc4c3F)c12 [Compound 44] | 29.6 | 15.2 | – | –
4 | C#Cc1c(F)ccc2cc(O)cc(-c3nc(COC)c4c(N5CC6CCC(C5)N6)nc(OC[C@@]56CCCN5C[C@H](F)C6)nc4c3F)c12 [Compound 26] | – | – | 0.4 | –
5 | C#Cc1c(F)ccc2cc(O)cc(-c3nc(C#CCCC#N)c4c(N5CC6CCC(C5)N6)nc(OC[C@@]56CCCN5C[C@H](F)C6)nc4c3F)c12 [Compound 31] | 34.6 | 24.6 | – | –
6 | C#Cc1c(F)ccc2cc(O)cc(-c3nc(C#C)c4c(N5CC6CCC(C5)N6)nc(OCCC(F)(F)F)nc4c3F)c12 [Compound 55] | 14.8 | 9.8 | – | –
7 | C#Cc1c(F)ccc2cc(O)cc(-c3nc(C#CCOC)c4c(N5CC6CCC(C5)N6)nc(OC[C@@]56CCCN5C[C@H](F)C6)nc4c3F)c12 [Compound 25] | 16.8 | 15 | – | IC50 (intracellular pERK; AGS, 3 h): 0.8 nM
8 | C#Cc1c(F)ccc2cc(O)cc(-c3nc(C#C)c4c(N5CCN[C@@H](C)C5)nc(OC[C@@]56CCCN5C[C@H](F)C6)nc4c3F)c12 [Compound 43] | 24.1 | 16.3 | – | –
9 | C#Cc1c(F)ccc2cc(O)cc(-c3nc(C#C)c4c(N5CC6CCC(C5)N6)nc(OCC56CCCN5CCC6)nc4c3F)c12 [Compound 54] | – | – | – | CLHep [1]: 5.6 mL/min/kg; ER [1]: 0.21; half-life at 1 μM [1]: 5.2 h; microsomal CLint at 1 μM [1]: 4.4 µL/min/mg; CLHep [2]: 31.9 mL/min/kg; CLin vivo [2]: 23.5 mL/min/kg; ER [2]: 0.26; half-life at 1 μM [2]: 2.86 h; microsomal CLint at 1 μM [2]: 8.1 µL/min/mg
10 | C#Cc1c(F)ccc2cc(O)cc(-c3nc(C#CCC)c4c(N5CC6CCC(C5)N6)nc(OC[C@@]56CCCN5C[C@H](F)C6)nc4c3F)c12 [Compound 24] | 15.1 | 13.6 | – | IC50 (intracellular pERK; AGS, 3 h): 0.2 nM
11 | C#Cc1c(F)ccc2cc(O)cc(-c3nc(C#C)c4c(N5CC6CCC(C5)N6)nc(OCC5CCCC5)nc4c3F)c12 [Compound 56] | 15.7 | 18.5 | – | –
12 | C#Cc1c(F)ccc2cc(O)cc(-c3nc(C#C)c4c(N5CC6CCC(C5)N6)nc(OC[C@H]5CCCN5C)nc4c3F)c12 [Compound 50] | 36.2 | 19.1 | – | –
13 | C#CCOc1nc(-c2cc(O)cc3ccc(F)c(C#C)c23)c(F)c2nc(OC[C@@]34CCCN3C[C@H](F)C4)nc(N3CC4CCC(C3)N4)c12 [Compound 91] | – | – | 0.3 | –
14 | C#Cc1c(F)ccc2cc(O)cc(-c3nc(C#C)c4c(N5CC6CCC(C5)N6)nc(OCC5(CN6CCOCC6)CC5)nc4c3F)c12 [Compound 53] | 14.6 | 4.3 | 0.4 | –
15 | C#Cc1nc(-c2cc(O)cc3cccc(F)c23)c(F)c2nc(OC[C@@]34CCCN3C[C@H](F)C4)nc(N3CC4CCC(C3)N4)c12 [Compound 68] | 16.6 | 6.5 | 0.8 | –
16 | C#Cc1c(F)ccc2cc(O)cc(-c3nc(C#CC4CCCC4)c4c(N5CC6CCC(C5)N6)nc(OC[C@@]56CCCN5C[C@H](F)C6)nc4c3F)c12 [Compound 28] | 11.5 | 11.1 | – | –
17 | C#Cc1c(F)ccc2cc(O)cc(-c3nc(OCCOC)c4c(N5CC6CCC(C5)N6)nc(OC[C@@]56CCCN5C[C@H](F)C6)nc4c3F)c12 [Compound 10] | 13.9 | 8.7 | – | –
18 | C#Cc1nc(-c2cc(O)cc3ccccc23)c(F)c2nc(OC[C@@]34CCCN3C[C@H](F)C4)nc(N3CC4CCC(C3)N4)c12 [Compound 66] | 11.7 | 5.9 | – | –
19 | C#Cc1c(F)ccc2cc(O)cc(-c3nc(C#C)c4c(N5CC6CCC(C5)N6)nc(OCC5(CN(C)C)CC5)nc4c3F)c12 [Compound 52] | 15.2 | 7.7 | 1.5 | –
20 | C#Cc1c(F)ccc2cc(O)cc(-c3nc(COC)c4c(N5CC6CCC(C5)N6)nc(OC[C@@]56CCCN5C[C@H](F)C6)nc4c3F)c12 [Compound 12] | 10.3 | 9.7 | – | –
21 | C#Cc1c(F)ccc2cc(O)cc(-c3nc(C(=O)OCC)c4c(N5CC6CCC(C5)N6)nc(OC[C@@]56CCCN5C[C@H](F)C6)nc4c3F)c12 [Compound 13] | 11.3 | 5.1 | – | –
22 | C#Cc1c(F)ccc2cccc(-c3nc(C#C)c4c(N5CC6CCC(C5)N6)nc(OC[C@@]56CCCN5C[C@H](F)C6)nc4c3F)c12 [Compound 84] | 29.6 | 20.8 | – | –
23 | [2H]C([2H])([2H])c1nc(-c2cc(O)cc3ccc(F)c(C#C)c23)c(F)c2nc(OC[C@@]34CCCN3C[C@H](F)C4)nc(N3CC4CCC(C3)N4)c12 [Compound 11] | 19.8 | 9.2 | – | –
24 | C#Cc1c(F)ccc2cc(O)cc(-c3nc(C#C)c4c(N5CC6CC(C5)N6)nc(OC[C@@]56CCCN5C[C@H](F)C6)nc4c3F)c12 [Compound 41] | 31.4 | 22 | – | –
25 | C#Cc1nc(-c2cc(O)cc3ccc(F)c(CC)c23)c(F)c2nc(OC[C@@]34CCCN3C[C@H](F)C4)nc(N3CC4CCC(C3)N4)c12 [Compound 65] | 18.5 | 9.9 | – | IC50 (intracellular pERK; AGS, 3 h): 0.4 nM
26 | C#Cc1c(F)ccc2cc(O)cc(-c3nc(C#CCCCC)c4c(N5CC6CCC(C5)N6)nc(OC[C@@]56CCCN5C[C@H](F)C6)nc4c3F)c12 [Compound 39] | – | – | 0.5 | CLHep [1]: 19.0 mL/min/kg; ER [1]: 0.48; half-life at 1 μM [1]: 1.52 h; microsomal CLint at 1 μM [1]: 15.2 µL/min/mg; CLHep [2]: 53.4 mL/min/kg; CLin vivo [2]: 33.5 mL/min/kg; ER [2]: 0.37; half-life at 1 μM [2]: 1.7 h; microsomal CLint at 1 μM [2]: 13.5 µL/min/mg
27 | C#Cc1c(F)ccc2cc(O)cc(-c3nc(OCCC(F)(F)F)c4c(N5CC6CCC(C5)N6)nc(OC[C@@]56CCCN5C[C@H](F)C6)nc4c3F)c12 [Compound 9] | 12.6 | 8.8 | 0.6 | –
28 | C#Cc1c(F)ccc2cc(O)cc(-c3nc(C#CCCC(C)C)c4c(N5CC6CCC(C5)N6)nc(OC[C@@]56CCCN5C[C@H](F)C6)nc4c3F)c12 [Compound 30] | 13.4 | 8.8 | 0.8 | –
29 | C#Cc1nc(-c2cc(O)cc(Cl)c2C2CC2)c(F)c2nc(OC[C@@]34CCCN3C[C@H](F)C4)nc(N3CC4CCC(C3)N4)c12 [Compound 78] | 17.3 | 7.5 | – | –
